Results: patent publication US11730717B1, “Melanin-inspired antimicrobial” (The Board of Regents for the Oklahoma Agricultural and …, priority 2020, dated 2023)
Several values for one entry are separate records, joined by “and”; a condition that tells them apart may be missing. Equal entries are not always repeated. Where two headings read alike, the source gives them in different places.

Columns and labels:
[1] = system: Gram-positive bacteria, including E. faecalis and clinical isolates MRSA; experiment: MIC summary for Gram-positive bacteria; type: cell-based
Description: The minimum inhibitory concentrations (MICs) were determined by the broth microdilution method, following the guidelines of the Clinical and Laboratory Standards Institute (CLSI). Two-fold serial dilutions of EIPE-1, DBI, and Arm (starting with 1 mg/mL) were prepared in a 100 μL volume in 96-well microtiter plates. The dilution series included DMSO as a negative control. The bacterial culture […] was normalized to an OD600 of 0.2 and was then added to each well. Plates were incubated with shaking at 220 RPM at 37° C., and the MIC was determined based on the lowest concentration at which no visible growth of the bacterial isolate was observed.
In summary, a new antimicrobial, EIPE-1, was designed and synthesized, inspired by the black-brown pigment, Eumelanin. It was confirmed that the Eumelanin-inspired core DBI maintained its intrinsic antimicrobial activity, and that enhancement could be achieved with the incorporation of bactericidal moieties. […] Bactericidal effects of EIPE-1 against S. aureus were monitored and confirmed using the Live/Dead staining and fluorescent microscopy.

[2] = system: MRSA; experiment: Live/Dead staining and fluorescent microscopy; type: cell-based, Staphylococcus aureus
Description: MRSA was grown overnight in 10 mL of LB broth, sub-cultured (5 mL of overnight culture added to 20 mL LB) and grown for 3 h. Bacterial culture (150 μL) were removed and transferred to a 1.5 mL centrifuge tube, which was treated with DMSO, EIPE-1 (0.01 mg/mL) or DBI (0.01 mg/mL) for 30 minutes. Equal amounts of the two dyes (SYTO 9 dye, 3.34 mM in DMSO), and propidium iodide (20 mM in DMSO) were mixed. Then 0.5 μL of the dye mixture was added to each tube of treated MRSA cultures. Wet mounts were prepared on glass slides for imaging live and dead MRSA, and Differential Interference Contrast (DIC) images were obtained using a Leica DMI600B fluorescent microscope. To determine the percentage of bacteria alive and dead, the total bacteria in each condition were counted in 20 fields of view and graphed using Prism 5.0.
To address MRSA viability in response to EIPE-1 treatment, a Live/Dead staining and microscopy was utilized. MRSA was treated with either DBI or EIPE-1 (16 μg/mL, 17 μM each) for 30 minutes (DMSO was used as a negative solvent control) and then stained with the dyes, Syto™ 9 and propidium iodide.

[3] = system: S. aureus ATCC 25923; experiment: MIC and MBC values (Table 2); type: cell-based, Staphylococcus aureus

In the case of `COC(=O)c1cc2c(C#Cc3ccc(OCCC[N+](C)(C)C)cc3)c(OC)c(OC)c(C#Cc3ccc(OCCC[N+](C)(C)C)cc3)c2n1C` [EIPE-1, 3,3′-((((5,6-dimethoxy-2-(methoxycarbonyl)-1-methyl-1H-indole-4,7-diyl)bis(ethyne-2,1-diyl))bis(4,1-phenylene))bis(oxy))bis(N,N,N-trimethylpropan-1-aminium) iodide], the MIC [1] was 8 µg/mL to 16 µg/mL and 8.5 µM to 17 µM, the “Live/Dead staining (green = intact membrane, red = damaged membrane)” value ([2]; 16 μg/mL, 17 μM, 30 minutes, Syto 9 and propidium iodide) was “only stained red” and the “time of exposure until biocidal activity occurred” value ([2]; MRSA) was no more than 30 min. The MBC ([3]; Staphylococcus aureus, ATCC25923, repeated determinations) was 2 µg/mL, the MIC ([3]; Staphylococcus aureus, ATCC25923, repeated determinations, read-out: MIC) was 2 µg/mL and the “MIC” value ([3]; repeated determinations) was 1.000 µg/mL.
